pIC50: −log10 of the molar value.
Target: NRAS (Homo sapiens, UniProt P01111, Q61R)
Experiment: acyl-resin assisted capture
Type: cell-based

In the case of C8 alkyl cysteine [compound 1], the pIC50 was 5.15.

Source: PMC7556697 (ACS chemical biology, 2020)
